One series relates to PC-3-GFP^u cells. Format: cell-based.
For series [1], the system named is proteasome TL activity in PC-3-GFP^u whole cell extracts. The format is cell-based.
Series [2] deals with proteasome PGPH activity in PC-3-GFP^u whole cell extracts. The format is cell-based.
Series [3] relates to proteasome CT activity in PC-3-GFP^u whole cell extracts. Format: cell-based.
Series [4] deals with proteasome TL activity in the liver of Gobiocypris rarus. Conditions: in vivo.
Another series has as its system protease. Conditions: cited from earlier work.
Series [5] has as its system serine/threonine protein phosphatases (PPs). Conditions: cited from earlier work.
Another series deals with animal cells. Conditions: cited from earlier work.

Like-named read-outs stand apart in the source and are kept apart here. Numbered stars: 1 amine (or outer) side, 2 acyl side, 3 side chain; on linkers, the order of the positions; unused ones are H or OH. Bridge positions count the residues as written; N and C are the ends. Square brackets hold non-standard residues; d marks the D form. Peptide text beside a SMILES is read from it. * marks the point of attachment. Adda = CO[C@@H](Cc1ccccc1)[C@@H](C)/C=C(C)/C=C/[C@H](N[*:1])[C@H](C)C(=O)[*:2]; dAsp(3S-Me) = C[C@H](C(=O)[*:3])[C@@H](N[*:1])C(=O)[*:2]; d(γGlu) = O=C(O)[C@@H](CCC(=O)[*:2])N[*:1]; Cbz = O=C(OCc1ccccc1)*; NMeDha = C=C(NC)C(=O)O

On to `C=C1C(=O)N[C@H](C)C(=O)N[C@@H](CC(C)C)C(=O)N[C@@H](C(=O)O)[C@H](C)C(=O)N[C@@H](CCCNC(=N)N)C(=O)N[C@@H](/C=C/C(C)=C/[C@H](C)[C@H](Cc2ccccc2)OC)[C@H](C)C(=O)N[C@@H](C(=O)O)CCC(=O)N1C` [MC-LR, microcystin-LR] (R[Adda][d(γGlu)][NMeDha][dA]L[dAsp(3S-Me)]-OH; lactam N-7), for which, in the series with PC-3-GFP^u cells, the “GFP degradation / accumulation of ubiquitinated GFP” value is listed as “Ubiquitinated GFP also accumulated”. Also, in series [1], the “inhibition of cellular proteasome TL activity” value is 34%. For the same compound, in series [2], the “effect on cellular proteasome PGPH activity” value is listed as “slightly inhibited”. Moreover, in series [3], the “effect on cellular proteasome CT activity” value is “did not evidently change”. In series [4], the “dose dependence of inhibition of proteasome TL activity in the liver” value is given as “dose-dependently inhibited”. In addition, in series [4] (pH 7.4), the “inhibition rate of proteasome TL activity in the liver” value was found to be 43%. Moreover, the degradation by protease result in the series with protease was “cannot be degraded by protease”. For the same compound, the “inhibition of serine/threonine protein phosphatases” value in series [5] is on record as “inhibition to serine/threonine protein phosphatases”. The “induction of oxidative stress” value in the series with animal cells is “induce oxidative stress in animal cells”.
As for `CC(C)C[C@@H](C=O)NC(=O)[C@H](CC(C)C)NC(=O)[C@H](CC(C)C)NC(=O)OCc1ccccc1` [MG-132] (Cbz-Leu-Leu-Leu-aldehyde), the “GFP degradation / accumulation of ubiquitinated GFP” value in the series with PC-3-GFP^u cells (MG-132 1 μM (positive control), 24 h, vs DMSO, fluorescence microscopy) is “GFP degradation was retarded and ubiquitinated GFP accumulated”.

The values are drawn from paper PMC4488699, “Proteasome as a Molecular Target of Microcystin-LR” (Toxins, 2015).
